Measured values published in the PolyMetriX glass transition set.

| Structure (SMILES) | glass transition temperature [°C] |
| --- | --- |
| *C(=O)Nc1ccc(Oc2ccc(C(C)(C)c3ccc(Oc4ccc(NC(=O)c5ccc6c(c5)C(=O)N(c5ccc(-c7sc(-c8ccc(N9C(=O)c%10ccc(*)cc%10C9=O)cc8)c(-c8ccccc8)c7-c7ccccc7)cc5)C6=O)cc4)cc3)cc2)cc1 (repeat unit) | 287.00 |
| *C(=O)c1ccc(Oc2ccc(-c3ccc(Oc4ccc(C(=O)c5ccc6nc(*)ccc6c5)cc4)cc3)cc2)cc1 (repeat unit) | 155.00 |
| *C(=O)c1ccc(Oc2ccc(C(C)(C)c3ccc(Oc4ccc(*)s4)cc3)cc2)cc1 (repeat unit) | 151.00 |
| *C(=O)c1ccc2c(c1)C(=O)N(c1ccc(Oc3ccc(C(C)(C)c4ccccc4)cc3)c(N3C(=O)c4ccc(*)cc4C3=O)c1)C2=O (repeat unit) | 267.00 |
| *Oc1c(C(C)C)cc(C(=O)c2cccc(C(=O)c3ccc(*)cc3)c2)cc1C(C)C (repeat unit) | 132.00 |
| *Oc1cc(OC(=O)c2ccc(Oc3ccc(C4(c5ccc(Oc6ccc(C(*)=O)cc6)cc5)CCC(C(C)(C)C)CC4)cc3)cc2)ccc1C12CC3CC(CC(C3)C1)C2 (repeat unit) | 180.00 |
| *Oc1ccc(-c2ccc(Oc3ccc(Oc4ccc(S(=O)(=O)c5ccc(Oc6ccc(*)cc6)cc5)cc4)cc3)c3ccccc23)c2ccccc12 (repeat unit) | 214.00 |
| *Oc1ccc(C(C)(C)c2ccc(Oc3ccc(C(=O)c4ccc(C(c5ccc(C(=O)c6ccc(*)cc6)cc5)(C(F)(F)F)C(F)(F)F)cc4)cc3)cc2)cc1 (repeat unit) | 181.00 |
| *Oc1ccc(C(C)(C)c2ccc(Oc3ccc(C(=O)c4cccc(C(=O)c5ccc(*)cc5)c4)cc3)cc2)cc1 (repeat unit) | 153.00 |
| *Oc1ccc(C(C)(C)c2ccc(Oc3ccc(C(=O)c4cccc5cccc(C(=O)c6ccc(*)cc6)c45)cc3)cc2)cc1 (repeat unit) | 210.50 |
| *Oc1ccc(C(C)(C)c2ccc(Oc3ccc(C(=O)c4ccccc4-c4ccccc4C(=O)c4ccc(*)cc4)cc3)cc2)cc1 (repeat unit) | 172.00 |
| *Oc1ccc(C(c2ccc(Oc3ccc(C(=O)c4cccc(-c5cccc(C(=O)c6ccc(*)cc6)c5)c4)cc3)cc2)(C(F)(F)F)C(F)(F)F)cc1 (repeat unit) | 159.00 |
| *Oc1ccc(C2(C)CCC(C(C)(C)c3ccc(Oc4ccc(C(=O)c5ccc(*)cc5)cc4)cc3)CC2)cc1 (repeat unit) | 200.00 |
| *Oc1ccc(C2(c3ccc(OC(=O)c4ccc(Oc5ccc(C6(c7ccc(Oc8ccc(C(*)=O)cc8)cc7)CCC(C(C)(C)C)CC6)cc5)cc4)cc3)CC3CC2C2CCCC32)cc1 (repeat unit) | 181.00 |
| *Oc1ccc(C2(c3ccc(OC(=O)c4ccc(Oc5ccc(C6(c7ccc(Oc8ccc(C(*)=O)cc8)cc7)CCC(C(C)(C)C)CC6)cc5)cc4)cc3)CCCCCCCCCCC2)cc1 (repeat unit) | 181.00 |
| *Oc1ccc(C2(c3ccc(Oc4ccc(C(=O)c5cccc(-c6cccc(C(=O)c7ccc(*)cc7)c6)c5)cc4)cc3)c3ccccc3-c3ccccc32)cc1 (repeat unit) | 212.00 |
| *Oc1ccc(C2(c3ccc(Oc4ccc(C(=O)c5cccc(C(=O)c6ccc(*)cc6)c5)cc4)c(C)c3)CCC3CCCCC3C2)cc1C (repeat unit) | 185.00 |
| *Oc1ccc(C2(c3ccc(Oc4ccc(C(=O)c5cccc(C(=O)c6ccc(*)cc6)c5)cc4)c(C)c3)c3ccccc3-c3ccccc32)cc1C (repeat unit) | 217.00 |
| *Oc1ccc(N(c2ccccc2)c2ccc(-c3ccc(N(c4ccccc4)c4ccc(*)cc4)cc3)cc2)cc1 (repeat unit) | 218.00 |
| *Oc1ccc(NC(=O)c2cccc(C(=O)Nc3ccc(Oc4ccc(C(C)(C)c5cccc(C(C)(C)c6ccc(*)cc6)c5)cc4)cc3)c2)cc1 (repeat unit) | 180.00 |
| *Oc1ccc(Nc2ccc(S(=O)(=O)c3ccc(Nc4ccc(Oc5ccc(C(C)(C)c6ccc(*)cc6)cc5)cc4)cc3)cc2)cc1 (repeat unit) | 145.00 |
| *Oc1ccc(Oc2ccc(Oc3ccc(S(=O)(=O)c4ccc(*)cc4)cc3)cc2)cc1 (repeat unit) | 192.00 |
| *Oc1ccc(Oc2ccc(S(=O)(=O)c3ccc(*)cc3)cc2)cc1 (repeat unit) | 210.00 |
| *Oc1ccc(Oc2ccc(S(=O)(=O)c3ccc(-c4ccc(-c5ccc(S(=O)(=O)c6ccc(*)cc6)cc5)cc4)cc3)cc2)cc1 (repeat unit) | 259.00 |
| *Oc1ccc(Oc2ccc(S(=O)c3ccc(Oc4ccc(Oc5cccc(*)n5)cc4)cc3)cc2)cc1 (repeat unit) | 138.00 |
| *Oc1ccc(P(C)(=O)c2ccc(Oc3ccc(C(C)(C)c4ccc(*)cc4)cc3)cc2)cc1 (repeat unit) | 192.00 |
| *Oc1ccc(S(=O)(=O)c2ccc(-c3ccc(-c4ccc(S(=O)(=O)c5ccc(*)cc5)cc4)cc3)cc2)cc1 (repeat unit) | 311.00 |

| Structure (SMILES) | glass transition temperature [°C] |
| --- | --- |
| *Oc1ccc(S(=O)(=O)c2ccc(Oc3ccc(C(c4ccc(*)c(Br)c4)(C(F)(F)F)C(F)(F)F)cc3Br)cc2)cc1 (repeat unit) | 197.50 |
| *Oc1ccc(S(=O)(=O)c2ccc(Oc3ccc(C(c4ccc(*)cc4)(C(F)(F)F)C(F)(F)F)cc3)cc2C(O)(C(F)(F)F)C(F)(F)F)c(C(O)(C(F)(F)F)C(F)(F)F)c1 (repeat unit) | 148.00 |
| *Oc1ccc(S(=O)(=O)c2ccc(Oc3ccc(C(c4ccccc4)(c4ccccc4)c4ccc(*)cc4)cc3)cc2)cc1 (repeat unit) | 230.00 |
| *Oc1ccc(S(=O)(=O)c2ccc(Oc3ccc(C4(c5ccc(*)cc5)C5CC6CC(C5)CC4C6)cc3)cc2)cc1 (repeat unit) | 297.00 |
| *Oc1ccc(S(=O)(=O)c2ccc(Oc3ccc(C4(c5ccc(*)cc5)CCCC4)cc3)cc2)cc1 (repeat unit) | 230.00 |
| *Oc1ccc(S(=O)(=O)c2ccc(Oc3ccc(Cc4ccc(*)cc4)cc3)cc2)cc1 (repeat unit) | 189.6 |
| *Oc1cccc(NC(=O)c2ccc(Oc3ccc(C(C)(C)c4ccc(C(C)(C)c5ccc(Oc6ccc(C(=O)Nc7ccc(*)cc7)cc6)cc5)cc4)cc3)cc2)c1 (repeat unit) | 168.00 |
| *c1ccc(-c2ccc(-c3ccc(-c4ccc(-c5ccc6c(c5)C(=O)N(c5ccc(Oc7ccc(C(C)(C)c8ccc(Oc9ccc(N%10C(=O)c%11ccc(*)cc%11C%10=O)cc9)cc8)cc7)cc5)C6=O)cc4)cc3)cc2)cc1 (repeat unit) | 236.00 |
| *c1ccc(-c2nc3ccc(Oc4ccc(Oc5ccc(P(=O)(c6ccccc6)c6ccc(Oc7ccc(Oc8ccc9nc(*)c(-c%10ccccc%10)nc9c8)cc7)cc6)cc5)cc4)cc3nc2-c2ccccc2)cc1 (repeat unit) | 248.00 |
| *c1ccc(Oc2ccc(C(=O)c3ccc(Oc4ccc(-c5c6c(c(*)c7ccccc57)C(=O)N(C)C6=O)cc4)cc3)cc2)cc1 (repeat unit) | 283.00 |
| *c1ccc(Oc2ccc(C(=O)c3ccc(Oc4ccc(-c5c6c(c(*)c7ccccc57)C(=O)N(CCCCCCCCCCCC)C6=O)cc4)cc3)cc2)cc1 (repeat unit) | 147.00 |
| *c1ccc(Oc2ccc(C(=O)c3ccc(Oc4ccc(C5(*)OC(=O)c6ccccc65)cc4)cc3)cc2)cc1 (repeat unit) | 218.00 |
| *c1ccc(Oc2ccc(C(=O)c3cccc(C(=O)c4ccc(Oc5ccc(-c6c7c(c(*)c8ccccc68)C(=O)N(c6ccc(F)cc6)C7=O)cc5)cc4)c3)cc2)cc1 (repeat unit) | 243.00 |
| *c1ccc(Oc2ccc(C(=O)c3cccc(C(=O)c4ccc(Oc5ccc(-c6nc(-c7ccccc7)[nH]c6*)cc5)cc4)c3)cc2)cc1 (repeat unit) | 230.00 |
| *c1ccc(Oc2ccc(C(C)(C)c3ccc(Oc4ccc(N5C(=O)CC(=O)N(*)C5=S)cc4)cc3)cc2)cc1 (repeat unit) | 150.00 |
| *c1ccc(Oc2ccc(C(C)(C)c3ccc(Oc4ccc(N5C(=O)c6ccc(Oc7ccc8c(c7)C(=O)N(*)C8=O)cc6C5=O)cc4)cc3)cc2)cc1 (repeat unit) | 227.50 |
| *c1ccc(Oc2ccc(C(c3ccc(Oc4ccc(-c5cccc(*)n5)cc4C(F)(F)F)cc3)(C(F)(F)F)C(F)(F)F)cc2)c(C(F)(F)F)c1 (repeat unit) | 153.00 |
| *c1ccc(Oc2ccc(C(c3ccc(Oc4ccc(-c5nnc(*)c6c(-c7ccc(F)cc7)c(-c7ccc(F)cc7)c(-c7ccc(F)cc7)c(-c7ccc(F)cc7)c56)cc4)cc3)(C(F)(F)F)C(F)(F)F)cc2)cc1 (repeat unit) | 288.00 |
| *c1ccc(Oc2ccc(C(c3ccc(Oc4ccc(-c5nnc(*)n5-c5ccc(S(=O)(=O)c6ccccc6)cc5)cc4)cc3)(C(F)(F)F)C(F)(F)F)cc2)cc1 (repeat unit) | 211.00 |
| *c1ccc(Oc2ccc(C3(c4ccc(Oc5ccc(-c6nc(-c7ccccn7)nnc6*)cc5)cc4)c4ccccc4-c4ccccc43)cc2)cc1 (repeat unit) | 277.00 |
| *c1ccc(Oc2ccc(C3(c4ccc(Oc5ccc(N6C(=O)c7ccc(Oc8ccc(C9(c%10ccc(Oc%11ccc%12c(c%11)C(=O)N(*)C%12=O)cc%10)CCCCCCCCCCC9)cc8)cc7C6=O)cc5)cc4)CCC(C(C)(C)C)CC3)cc2)cc1 (repeat unit) | 254.00 |
| *c1ccc(Oc2ccc(N3C(=O)CC4C(CC5C(=O)N(*)C(=O)C54)C3=O)cc2)cc1 (repeat unit) | 350.00 |
| *c1ccc(Oc2ccc(Oc3ccc(-n4c(=O)c5cc6c(=O)n(*)c(=O)c6cc5c4=O)cc3)cc2)c(C(F)(F)F)c1 (repeat unit) | 272.20 |
| *c1ccc(Oc2ccc(Oc3ccc(-n4c(=O)c5cc6c(=O)n(*)c(=O)c6cc5c4=O)cc3)cc2-c2ccccc2)cc1 (repeat unit) | 271.00 |
| *c1cccc(C(=O)Nc2ccc(Oc3ccc(C(C)(C)c4ccc(Oc5ccc(NC(=O)c6cccc(N7C(=O)c8ccc(-c9cccc%10c9C(=O)N(*)C%10=O)cc8C7=O)c6)cc5)cc4)cc3)cc2)c1 (repeat unit) | 261.00 |
| *c1cccc(C(=O)c2cccc(-n3c(=O)c4cc5c(=O)n(*)c(=O)c5cc4c3=O)c2)c1 (repeat unit) | 321.00 |
